What was measured:
A498 = assay: cells; conditions: Homo sapiens, A498, 48 h; for CC50: read-out: LC50
HL-60(TB) = assay: cells; conditions: Homo sapiens, HL-60, 48 h; for CC50: read-out: LC50
K-562 = assay: cells; conditions: Homo sapiens, K562, 48 h; for GI50: K-562, 48 h; for CC50: read-out: LC50
SN12C = assay: cells; conditions: Homo sapiens, 48 h; for CC50: read-out: LC50
PC-3 = assay: cells; conditions: Homo sapiens, PC-3, 48 h; for CC50: read-out: LC50
NCI-H460 = assay: cells; conditions: Homo sapiens, NCI-H460, 48 h; for CC50: read-out: LC50
M14 = assay: cells; conditions: Homo sapiens, M14, 48 h; for CC50: read-out: LC50
HCT-116 = assay: cells; conditions: Homo sapiens, HCT-116, 48 h; for CC50: read-out: LC50
A549/ATCC = assay: cells; conditions: Homo sapiens, A549, 48 h; for CC50: read-out: LC50
HS 578T = assay: cells; conditions: Homo sapiens, 48 h; for CC50: read-out: LC50
MDA-MB-435 = assay: cells; conditions: Homo sapiens, MDA-MB-435, 48 h; for CC50: read-out: LC50
NCI-H23 = assay: cells; conditions: Homo sapiens, NCI-H23, 48 h; for CC50: read-out: LC50
SK-OV-3 = assay: cells; conditions: Homo sapiens, SK-OV-3, 48 h; for CC50: read-out: LC50
IGROV1 = assay: cells; conditions: Homo sapiens, IGROV-1, 48 h; for CC50: read-out: LC50
SK-MEL-28 = assay: cells; conditions: Homo sapiens, SK-MEL-28, 48 h; for CC50: read-out: LC50
60 cancer cell lines = assay: NCI-60 one-dose screen (10 μM); assay type: cell-based; conditions: Homo sapiens; one dose of 10 μM, mean over 60 cancer cell lines; read-out: Mean Growth Percent (MGP)
From the text: Additionally, the mean of the growth percentages (MGP) of each compound against all the 60 cancer cell lines is also reported, which is used as one of the selection criteria to continue with tests at five concentration doses.

SNB-75 = assay: cells; conditions: Homo sapiens, SNB-75, 48 h; for CC50: read-out: LC50
HCC-2998 = assay: cells; conditions: Homo sapiens, HCC 2998, 48 h; for CC50: read-out: LC50
SW-620 = assay: cells; conditions: Homo sapiens, SW-620, 48 h; for CC50: read-out: LC50
LOX IMVI = assay: cells; conditions: Homo sapiens, 48 h; for CC50: read-out: LC50, LOX IMVI, 48 h
MCF7 = assay: cells; conditions: Homo sapiens, MCF7, 48 h; for CC50: read-out: LC50
EKVX = assay: cells; conditions: Homo sapiens, 48 h; for CC50: read-out: LC50
HOP-92 = assay: cells; conditions: Homo sapiens, HOP-92, 48 h; for CC50: read-out: LC50
NCI-H226 = assay: cells; conditions: Homo sapiens, NCI-H226, 48 h; for CC50: read-out: LC50
MDA-MB-231/ATCC = assay: cells; conditions: Homo sapiens, MDA-MB-231, 48 h; for CC50: read-out: LC50
SF-539 = assay: cells; conditions: Homo sapiens, SF-539, 48 h; for CC50: read-out: LC50, SF-539, 48 h
CCRF-CEM = assay: cells; conditions: Homo sapiens, 48 h; for CC50: read-out: LC50
TK-10 = assay: cells; conditions: Homo sapiens, TK-10, 48 h; for CC50: read-out: LC50
UACC-257 = assay: cells; conditions: Homo sapiens, UACC-257, 48 h; for CC50: read-out: LC50
OVCAR-8 = assay: cells; conditions: Homo sapiens, OVCAR-8, 48 h; for CC50: read-out: LC50
MALME-3M = assay: cells; conditions: Homo sapiens, 48 h; for CC50: read-out: LC50
RXF 393 = assay: cells; conditions: Homo sapiens, RXF 393, 48 h; for CC50: read-out: LC50
[1] = Hemolytic activity, spectrophotometric; assay type: cell-based, human; conditions: human, human red blood cells (huRBC), 5% hematocrit, 200 μg/mL, 37 °C
ACHN = assay: cells; conditions: Homo sapiens, 48 h; for CC50: read-out: LC50
RPMI-8226 = assay: cells; conditions: Homo sapiens, RPMI-8226, 48 h; for CC50: read-out: LC50
BT-549 = assay: cells; conditions: Homo sapiens, BT-549, 48 h; for CC50: read-out: LC50
MOLT-4 = assay: cells; conditions: Homo sapiens, MOLT-4, 48 h; for CC50: read-out: LC50
OVCAR-5 = assay: cells; conditions: Homo sapiens, OVCAR-5, 48 h; for CC50: read-out: LC50

With `CN(C)c1nc(NCCNS(=O)(=O)c2ccc(C(=O)/C=C/c3ccc(F)cc3)cc2)nc(Nc2ccc(F)cc2)n1` [24f] the GI50 (A498) was 6.21 µM, the CC50 (A498) was 19.3 µM and the GI50 (HL-60(TB)) was 2.04 µM. For the same compound, the CC50 (HL-60(TB)) was 6.34 µM, the GI50 (K-562) was 2.42 µM and the CC50 (K-562) was 6.79 µM. The GI50 (SN12C) was 1.7 µM, the CC50 (SN12C) was 3.36 µM and the GI50 (PC-3) was 2.76 µM. The CC50 (PC-3) was 10.6 µM, the GI50 (NCI-H460) was 2.45 µM and the CC50 (NCI-H460) was 6.93 µM. For the same compound, the GI50 (M14) was 2.6 µM, the CC50 (M14) was 8.28 µM and the GI50 (HCT-116) was 1.6 µM. It also gave a CC50 (HCT-116) of 3.01 µM, a GI50 (A549/ATCC) of 3.41 µM and a CC50 (A549/ATCC) of 14.2 µM. It also gave a GI50 (HS 578T) of 6.3 µM, a CC50 (HS 578T) of 71.5 µM and a GI50 (MDA-MB-435) of 2.32 µM. For the same compound, the CC50 (MDA-MB-435) was 5.69 µM, the GI50 (NCI-H23) was 4.17 µM and the CC50 (NCI-H23) was 15.6 µM. It also gave a GI50 (SK-OV-3) of 8.23 µM, a CC50 (SK-OV-3) of 21.6 µM and a GI50 (IGROV1) of 4.27 µM. It also gave a CC50 (IGROV1) of 15 µM, a GI50 (SK-MEL-28) of 3.6 µM and a CC50 (SK-MEL-28) of 13.7 µM. It also gave an activity at 10 µM (60 cancer cell lines) of -70.5%, a GI50 (SNB-75) of 2.88 µM and a CC50 (SNB-75) of 16 µM. For the same compound, the GI50 (HCC-2998) was 1.8 µM, the CC50 (HCC-2998) was 3.45 µM and the GI50 (SW-620) was 1.9 µM. It also gave a CC50 (SW-620) of 4.02 µM, a GI50 (LOX IMVI) of 1.66 µM and a CC50 (LOX IMVI) of 3.07 µM. It also gave a GI50 (MCF7) of 1.8 µM, a CC50 (MCF7) of 3.46 µM and a GI50 (EKVX) of 2.95 µM. For the same compound, the CC50 (EKVX) was 10.9 µM, the GI50 (HOP-92) was 2.49 µM and the CC50 (HOP-92) was 6.51 µM. For the same compound, the GI50 (NCI-H226) was 3.41 µM, the CC50 (NCI-H226) was 16.4 µM and the GI50 (MDA-MB-231/ATCC) was 2.64 µM. It also gave a CC50 (MDA-MB-231/ATCC) of 8.39 µM, a GI50 (SF-539) of 2.52 µM and a CC50 (SF-539) of 6.78 µM. For the same compound, the GI50 (CCRF-CEM) was 3.42 µM, the CC50 (CCRF-CEM) was > 100 µM and the GI50 (TK-10) was 4.62 µM. For the same compound, the CC50 (TK-10) was 16.6 µM, the GI50 (UACC-257) was 3.61 µM and the CC50 (UACC-257) was 15.2 µM. For the same compound, the GI50 (OVCAR-8) was 3.42 µM, the CC50 (OVCAR-8) was 13.9 µM and the GI50 (MALME-3M) was 3.42 µM. It also gave a CC50 (MALME-3M) of 12.4 µM, a GI50 (RXF 393) of 2.26 µM and a CC50 (RXF 393) of 7.51 µM. The hemolysis at 24 h, 200 µg/mL [1] was 9.9%, the GI50 (ACHN) was 3.13 µM and the CC50 (ACHN) was 10.9 µM. It also gave a GI50 (RPMI-8226) of 2.42 µM, a CC50 (RPMI-8226) of 6.92 µM and a GI50 (BT-549) of 4.87 µM. For the same compound, the CC50 (BT-549) was 17.1 µM, the GI50 (MOLT-4) was 2.5 µM and the CC50 (MOLT-4) was 6.49 µM. It also gave a GI50 (OVCAR-5) of 3.39 µM and a CC50 (OVCAR-5) of 15 µM.
`CN(C)c1nc(NCCNS(=O)(=O)c2ccc(C(=O)/C=C/c3ccccc3)cc2)nc(N2CCOCC2)n1` [23a] showed a GI50 (A498) of 14.6 µM, a CC50 (A498) of 52.9 µM and a GI50 (HL-60(TB)) of 6.18 µM. For the same compound, the CC50 (HL-60(TB)) was > 100 µM, the GI50 (K-562) was 2.19 µM and the CC50 (K-562) was > 100 µM. For the same compound, the GI50 (SN12C) was 14.6 µM, the CC50 (SN12C) was 56.1 µM and the GI50 (PC-3) was 8.63 µM. The CC50 (PC-3) was 58.9 µM, the GI50 (NCI-H460) was 18.2 µM and the CC50 (NCI-H460) was 80.7 µM. It also gave a GI50 (M14) of 14.6 µM, a CC50 (M14) of 68.5 µM and a GI50 (HCT-116) of 1.82 µM. It also gave a CC50 (HCT-116) of 7.1 µM, a GI50 (A549/ATCC) of 13.6 µM and a CC50 (A549/ATCC) of 59.1 µM. For the same compound, the GI50 (HS 578T) was 17.1 µM, the CC50 (HS 578T) was > 100 µM and the GI50 (MDA-MB-435) was 14.7 µM. For the same compound, the CC50 (MDA-MB-435) was 54.4 µM, the GI50 (NCI-H23) was 16 µM and the CC50 (NCI-H23) was 58 µM. It also gave a GI50 (SK-OV-3) of 15.6 µM, a CC50 (SK-OV-3) of 56.8 µM and a GI50 (IGROV1) of 15.3 µM. For the same compound, the CC50 (IGROV1) was 66.4 µM, the GI50 (SK-MEL-28) was 17.2 µM and the CC50 (SK-MEL-28) was 63.9 µM. The activity at 10 µM (60 cancer cell lines) was 61.9%, the GI50 (SNB-75) was 5.49 µM and the CC50 (SNB-75) was 44.6 µM. It also gave a GI50 (HCC-2998) of 16.7 µM, a CC50 (HCC-2998) of 57.7 µM and a GI50 (SW-620) of 3.41 µM. The CC50 (SW-620) was 42.7 µM, the GI50 (LOX IMVI) was 1.97 µM and the CC50 (LOX IMVI) was 8.68 µM. For the same compound, the GI50 (MCF7) was 3.49 µM, the CC50 (MCF7) was 62 µM and the GI50 (EKVX) was 14.7 µM. For the same compound, the CC50 (EKVX) was 63.8 µM, the GI50 (HOP-92) was 12.2 µM and the CC50 (HOP-92) was 58 µM. The GI50 (NCI-H226) was 13.5 µM, the CC50 (NCI-H226) was 74.2 µM and the GI50 (MDA-MB-231/ATCC) was 13.9 µM. It also gave a CC50 (MDA-MB-231/ATCC) of 54.7 µM, a GI50 (SF-539) of 11.1 µM and a CC50 (SF-539) of 53.2 µM. The GI50 (CCRF-CEM) was 4.41 µM, the CC50 (CCRF-CEM) was > 100 µM and the GI50 (TK-10) was 16.4 µM. The CC50 (TK-10) was 55.5 µM, the GI50 (UACC-257) was 17.9 µM and the CC50 (UACC-257) was 58.3 µM. For the same compound, the GI50 (OVCAR-8) was 16.4 µM, the CC50 (OVCAR-8) was 61.7 µM and the GI50 (MALME-3M) was 15.2 µM. For the same compound, the CC50 (MALME-3M) was 56.5 µM, the GI50 (RXF 393) was 7.87 µM and the CC50 (RXF 393) was 55.8 µM. The hemolysis at 24 h, 200 µg/mL [1] was 0.7%, the GI50 (ACHN) was 18.2 µM and the CC50 (ACHN) was 72.2 µM. The GI50 (RPMI-8226) was 3.25 µM, the CC50 (RPMI-8226) was > 100 µM and the GI50 (BT-549) was 11.2 µM. The CC50 (BT-549) was 50 µM, the GI50 (MOLT-4) was 4.27 µM and the CC50 (MOLT-4) was > 100 µM. For the same compound, the GI50 (OVCAR-5) was 12.1 µM and the CC50 (OVCAR-5) was 55.9 µM.

From paper PMC11012124, “Synthesis of Novel Triazine-Based Chalcones and 8,9-dihydro-7H-pyrimido[4,5-b][1,4]diazepines as Potential Leads in the Search of Anticancer, Antibacterial and Antifungal Agents” (International Journal of Molecular Sciences, 2024)
